# Laboratory results as given in ChEMBL document CHEMBL4342417, “Design, synthesis and evaluation of novel phenothiazine derivatives as inhibitors of breast cancer stem cells” (Eur J Med Chem, 2019).
# Tested on: SK-BR-3
# Assay: Potency index, ratio of IC50 of TFP to IC50 of compound for antiproliferative activity against human SKBR3 cells assessed as reduction in cell viability incubated for 2 days by MTT assay
# Type: functional
# Settings: not given
row,Compound,Ratio IC50
1,O=C(CCC(=O)N1CCN(CCCN2c3ccccc3Sc3ccccc32)CC1)OCCOCCOc1no[n+]([O-])c1S(=O)(=O)c1ccccc1,4
2,O=C(CCC(=O)N1CCN(CCCN2c3ccccc3Sc3ccc(C(F)(F)F)cc32)CC1)NCCOc1no[n+]([O-])c1S(=O)(=O)c1ccccc1,4 - 9
3,CSc1ccc2c(c1)N(CCCN1CCN(C(=O)CCC(=O)OCC#CCOc3no[n+]([O-])c3S(=O)(=O)c3ccccc3)CC1)c1ccccc1S2,6

# Tested on: MCF7
# Assay: Inhibition of colony formation in human MCF7 cells at 0.74 uM incubated for 14 days with replacement of medium for every 3 or 4 days by crystal violet staining based visual analysis relative to control
# Type: functional
# Settings: not given
row,Compound,inhibition at 0.74 µM [%]
1,O=C(CCC(=O)N1CCN(CCCN2c3ccccc3Sc3ccccc32)CC1)OCCCCOc1no[n+]([O-])c1S(=O)(=O)c1ccccc1,11.6

# Tested on: SUM-159-PT
# Assay: Inhibition of mammosphere formation in human SUM159 cells assessed as reduction in number of mammosphere at 1 uM incubated for 10 days by microscopic analysis
# Type: functional
# Settings: not given
row,Compound,Activity
1,O=C(CCC(=O)N1CCN(CCCN2c3ccccc3Sc3ccccc32)CC1)OCCCCOc1no[n+]([O-])c1S(=O)(=O)c1ccccc1,8

# Tested on: MDA-MB-231
# Assay: Downregulation of NF-kappaB-p65 expression in human MDA-MB-231 cells incubated for 48 hrs by Western blot analysis
# Type: functional, cell-based
# Settings: not given
row,Compound,Activity
1,O=C(CCC(=O)N1CCN(CCCN2c3ccccc3Sc3ccccc32)CC1)OCCCCOc1no[n+]([O-])c1S(=O)(=O)c1ccccc1,Dose-dependent effect

# Tested on: not listed separately
# Assay: Toxicity in zebra fish assessed as survival rate at 250 uM observed for 24 hrs
# Design: species or system Danio rerio
# Settings: zebrafish
row,Compound,"survival at 24 h, 250 µM [%]"
1,O=C(CCC(=O)N1CCN(CCCN2c3ccccc3Sc3ccccc32)CC1)OCCCCOc1no[n+]([O-])c1S(=O)(=O)c1ccccc1,64.5

# Tested on: MCF7
# Assay: Antiproliferative activity against human MCF7 cells assessed as reduction in cell viability incubated for 2 days by MTT assay
# Type: functional, cell-based
# Settings: MCF7, 48 h
row,IC50 [µM],Compound
1,12.2,O=C(CCC(=O)N1CCN(CCCN2c3ccccc3Sc3ccccc32)CC1)OCCOCCOc1no[n+]([O-])c1S(=O)(=O)c1ccccc1
2,6.96,O=C(CCC(=O)N1CCN(CCCN2c3ccccc3Sc3ccc(C(F)(F)F)cc32)CC1)NCCOc1no[n+]([O-])c1S(=O)(=O)c1ccccc1
3,4.32,CSc1ccc2c(c1)N(CCCN1CCN(C(=O)CCC(=O)OCC#CCOc3no[n+]([O-])c3S(=O)(=O)c3ccccc3)CC1)c1ccccc1S2

row,Compound,IC50 [µM]
1,O=C(CCC(=O)N1CCN(CCCN2c3ccccc3Sc3ccccc32)CC1)OCCCCOc1no[n+]([O-])c1S(=O)(=O)c1ccccc1,2.94

# Tested on: MDA-MB-231
# Assay: Antiproliferative activity against human MDA-MB-231 cells assessed as reduction in cell viability incubated for 2 days by MTT assay
# Type: functional, cell-based
# Settings: MDA-MB-231, 48 h
row,IC50 [µM],Compound
1,14.8,O=C(CCC(=O)N1CCN(CCCN2c3ccccc3Sc3ccccc32)CC1)OCCOCCOc1no[n+]([O-])c1S(=O)(=O)c1ccccc1
2,6.04,O=C(CCC(=O)N1CCN(CCCN2c3ccccc3Sc3ccc(C(F)(F)F)cc32)CC1)NCCOc1no[n+]([O-])c1S(=O)(=O)c1ccccc1
3,20.2,CSc1ccc2c(c1)N(CCCN1CCN(C(=O)CCC(=O)OCC#CCOc3no[n+]([O-])c3S(=O)(=O)c3ccccc3)CC1)c1ccccc1S2

row,Compound,IC50 [µM]
1,O=C(CCC(=O)N1CCN(CCCN2c3ccccc3Sc3ccccc32)CC1)OCCCCOc1no[n+]([O-])c1S(=O)(=O)c1ccccc1,11.2

# Tested on: SUM-159-PT
# Assay: Inhibition of mammosphere formation in human SUM159 cells assessed as reduction in number of mammosphere at 2 uM incubated for 10 days by microscopic analysis
# Type: functional
# Settings: not given
row,Compound,Activity
1,O=C(CCC(=O)N1CCN(CCCN2c3ccccc3Sc3ccccc32)CC1)OCCCCOc1no[n+]([O-])c1S(=O)(=O)c1ccccc1,1

# Biological target: Transcription factor p65 (Homo sapiens) (UniProt Q04206)
# Assay: Inhibition of LPS-stimulated NF-kappaB-p65 in human MDA-MB-231 cells incubated for 24 hrs by dual luciferase reporter gene assay
# Type: cell-based
# Settings: not given
# Sequence of Transcription factor p65 (Homo sapiens) (Q04206 whole entry): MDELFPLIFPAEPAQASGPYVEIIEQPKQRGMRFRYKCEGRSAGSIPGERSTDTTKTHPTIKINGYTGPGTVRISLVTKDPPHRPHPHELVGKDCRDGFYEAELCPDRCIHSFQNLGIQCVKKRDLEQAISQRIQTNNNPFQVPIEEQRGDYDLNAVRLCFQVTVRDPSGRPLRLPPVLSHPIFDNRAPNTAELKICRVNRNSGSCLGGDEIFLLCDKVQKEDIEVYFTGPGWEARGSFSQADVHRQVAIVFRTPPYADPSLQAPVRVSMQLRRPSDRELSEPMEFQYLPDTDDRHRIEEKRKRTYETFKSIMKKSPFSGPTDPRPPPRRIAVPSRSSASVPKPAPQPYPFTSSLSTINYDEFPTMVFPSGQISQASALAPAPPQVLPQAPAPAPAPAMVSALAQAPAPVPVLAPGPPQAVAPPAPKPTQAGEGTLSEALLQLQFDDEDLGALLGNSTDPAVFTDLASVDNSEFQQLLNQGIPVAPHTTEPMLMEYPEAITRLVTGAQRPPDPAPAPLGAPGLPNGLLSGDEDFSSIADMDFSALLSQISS
row,Compound,inhibition
1,O=C(CCC(=O)N1CCN(CCCN2c3ccccc3Sc3ccccc32)CC1)OCCCCOc1no[n+]([O-])c1S(=O)(=O)c1ccccc1,Dose-dependent effect

# Tested on: SUM-159-PT
# Assay: Potency index, ratio of IC50 of TFP to IC50 of compound for antiproliferative activity against human SUM159 cells assessed as reduction in cell viability incubated for 2 days by MTT assay
# Type: functional
# Settings: not given
row,Compound,Ratio IC50
1,O=C(CCC(=O)N1CCN(CCCN2c3ccccc3Sc3ccccc32)CC1)OCCCCOc1no[n+]([O-])c1S(=O)(=O)c1ccccc1,6 - 15
2,O=C(CCC(=O)N1CCN(CCCN2c3ccccc3Sc3ccccc32)CC1)OCCOCCOc1no[n+]([O-])c1S(=O)(=O)c1ccccc1,4 - 9
3,O=C(CCC(=O)N1CCN(CCCN2c3ccccc3Sc3ccc(C(F)(F)F)cc32)CC1)NCCOc1no[n+]([O-])c1S(=O)(=O)c1ccccc1,9

# Tested on: SUM-159-PT
# Assay: Antiproliferative activity against human SUM159 cells assessed as reduction in cell viability incubated for 2 days by MTT assay
# Type: functional, cell-based
# Settings: 48 h
row,Compound,IC50 [µM]
1,O=C(CCC(=O)N1CCN(CCCN2c3ccccc3Sc3ccccc32)CC1)OCCCCOc1no[n+]([O-])c1S(=O)(=O)c1ccccc1,1.63
2,O=C(CCC(=O)N1CCN(CCCN2c3ccccc3Sc3ccccc32)CC1)OCCOCCOc1no[n+]([O-])c1S(=O)(=O)c1ccccc1,1.95
3,O=C(CCC(=O)N1CCN(CCCN2c3ccccc3Sc3ccc(C(F)(F)F)cc32)CC1)NCCOc1no[n+]([O-])c1S(=O)(=O)c1ccccc1,1.98
4,CSc1ccc2c(c1)N(CCCN1CCN(C(=O)CCC(=O)OCC#CCOc3no[n+]([O-])c3S(=O)(=O)c3ccccc3)CC1)c1ccccc1S2,3.97

# Tested on: MDA-MB-231
# Assay: Potency index, ratio of IC50 of TFP to IC50 of compound for antiproliferative activity against human MDA-MB-231 cells assessed as reduction in cell viability incubated for 2 days by MTT assay
# Type: functional
# Settings: not given
row,Compound,Ratio IC50
1,O=C(CCC(=O)N1CCN(CCCN2c3ccccc3Sc3ccc(C(F)(F)F)cc32)CC1)NCCOc1no[n+]([O-])c1S(=O)(=O)c1ccccc1,4 - 15

# Tested on: MCF7
# Assay: Potency index, ratio of IC50 of TFP to IC50 of compound for antiproliferative activity against human MCF7 cells assessed as reduction in cell viability incubated for 2 days by MTT assay
# Type: functional
# Settings: not given
row,Compound,Ratio IC50
1,O=C(CCC(=O)N1CCN(CCCN2c3ccccc3Sc3ccccc32)CC1)OCCCCOc1no[n+]([O-])c1S(=O)(=O)c1ccccc1,4 - 13

# Tested on: KG-1a
# Assay: Antiproliferative activity against human KG1a cells assessed as reduction in cell viability incubated for 2 days by MTT assay
# Type: functional, cell-based
# Settings: 48 h
row,Compound,IC50 [µM]
1,O=C(CCC(=O)N1CCN(CCCN2c3ccccc3Sc3ccccc32)CC1)OCCCCOc1no[n+]([O-])c1S(=O)(=O)c1ccccc1,1.63

# Tested on: SK-BR-3
# Assay: Antiproliferative activity against human SKBR3 cells assessed as reduction in cell viability incubated for 2 days by MTT assay
# Type: functional, cell-based
# Settings: SK-BR-3, 48 h
row,IC50 [µM],Compound
1,3.13,O=C(CCC(=O)N1CCN(CCCN2c3ccccc3Sc3ccccc32)CC1)OCCOCCOc1no[n+]([O-])c1S(=O)(=O)c1ccccc1
2,1.77,O=C(CCC(=O)N1CCN(CCCN2c3ccccc3Sc3ccc(C(F)(F)F)cc32)CC1)NCCOc1no[n+]([O-])c1S(=O)(=O)c1ccccc1
3,2.63,CSc1ccc2c(c1)N(CCCN1CCN(C(=O)CCC(=O)OCC#CCOc3no[n+]([O-])c3S(=O)(=O)c3ccccc3)CC1)c1ccccc1S2

row,Compound,IC50 [µM]
1,O=C(CCC(=O)N1CCN(CCCN2c3ccccc3Sc3ccccc32)CC1)OCCCCOc1no[n+]([O-])c1S(=O)(=O)c1ccccc1,13.6

# Tested on: SUM-159-PT
# Assay: Inhibition of mammosphere formation in human SUM159 cells assessed as reduction in number of mammosphere at 0.5 uM incubated for 10 days by microscopic analysis
# Type: functional
# Settings: not given
row,Compound,Activity
1,O=C(CCC(=O)N1CCN(CCCN2c3ccccc3Sc3ccccc32)CC1)OCCCCOc1no[n+]([O-])c1S(=O)(=O)c1ccccc1,19

# Tested on: MCF7
# Assay: Inhibition of colony formation in human MCF7 cells at 0.37 uM incubated for 14 days with replacement of medium for every 3 or 4 days by crystal violet staining based visual analysis relative to control
# Type: functional
# Settings: not given
row,Compound,inhibition at 0.37 µM [%]
1,O=C(CCC(=O)N1CCN(CCCN2c3ccccc3Sc3ccccc32)CC1)OCCCCOc1no[n+]([O-])c1S(=O)(=O)c1ccccc1,33.1

# Tested on: MCF7
# Assay: Inhibition of colony formation in human MCF7 cells incubated for 14 days with replacement of medium for every 3 or 4 days by crystal violet staining based visual analysis
# Type: functional, cell-based
# Settings: not given
row,Compound,inhibition
1,O=C(CCC(=O)N1CCN(CCCN2c3ccccc3Sc3ccccc32)CC1)OCCCCOc1no[n+]([O-])c1S(=O)(=O)c1ccccc1,Dose-dependent effect

# Tested on: MCF7
# Assay: Inhibition of colony formation in human MCF7 cells at 0.18 uM incubated for 14 days with replacement of medium for every 3 or 4 days by crystal violet staining based visual analysis relative to control
# Type: functional
# Settings: not given
row,Compound,inhibition at 0.18 µM [%]
1,O=C(CCC(=O)N1CCN(CCCN2c3ccccc3Sc3ccccc32)CC1)OCCCCOc1no[n+]([O-])c1S(=O)(=O)c1ccccc1,64.4

# Tested on: MDA-MB-231
# Assay: Inhibition of cell migration of human MDA-MB-231 cells incubated for 48 hrs by scratch wound healing assay
# Type: functional, cell-based
# Settings: not given
row,Compound,inhibition
1,O=C(CCC(=O)N1CCN(CCCN2c3ccccc3Sc3ccccc32)CC1)OCCCCOc1no[n+]([O-])c1S(=O)(=O)c1ccccc1,Dose-dependent effect

# Tested on: SUM-159-PT
# Assay: Inhibition of mammosphere formation in human SUM159 cells incubated for 10 days by microscopic analysis
# Type: functional, cell-based
# Settings: not given
row,Compound,inhibition
1,O=C(CCC(=O)N1CCN(CCCN2c3ccccc3Sc3ccccc32)CC1)OCCCCOc1no[n+]([O-])c1S(=O)(=O)c1ccccc1,Dose-dependent effect
